Values joined by “and” are separate entries in the source; they are usually repeats but may differ in a detail not shown here. Equal entries are not always repeated.
Assays:
PKN2 = PKN2 (Homo sapiens, UniProt Q16513); assay: biochemical; conditions: read-out: %Ctrl @ 2000nM
CAMK2B = CAMK2B (Homo sapiens, UniProt Q13554); assay: biochemical; conditions: read-out: %Ctrl @ 2000nM
PAK6 = PAK6 (Homo sapiens, UniProt Q9NQU5); assay: biochemical; conditions: read-out: %Ctrl @ 2000nM
BIKE = BIKE (Homo sapiens, UniProt Q9NSY1); assay: biochemical; conditions: read-out: %Ctrl @ 2000nM
[1] = target: RSK1(Kin.Dom.1-N-terminal) (Homo sapiens, UniProt Q15418); assay: biochemical; conditions: read-out: %Ctrl @ 2000nM
PIK3CA(H1047Y) = PIK3CA(H1047Y) (Homo sapiens, UniProt P42336, H1047Y); assay: biochemical; conditions: read-out: %Ctrl @ 2000nM
HCK = HCK (Homo sapiens, UniProt P08631); assay: biochemical; conditions: read-out: %Ctrl @ 2000nM
MRCKA = MRCKA (Homo sapiens, UniProt Q5VT25); assay: biochemical; conditions: read-out: %Ctrl @ 2000nM
Sequence of MRCKA (Q5VT25 whole entry): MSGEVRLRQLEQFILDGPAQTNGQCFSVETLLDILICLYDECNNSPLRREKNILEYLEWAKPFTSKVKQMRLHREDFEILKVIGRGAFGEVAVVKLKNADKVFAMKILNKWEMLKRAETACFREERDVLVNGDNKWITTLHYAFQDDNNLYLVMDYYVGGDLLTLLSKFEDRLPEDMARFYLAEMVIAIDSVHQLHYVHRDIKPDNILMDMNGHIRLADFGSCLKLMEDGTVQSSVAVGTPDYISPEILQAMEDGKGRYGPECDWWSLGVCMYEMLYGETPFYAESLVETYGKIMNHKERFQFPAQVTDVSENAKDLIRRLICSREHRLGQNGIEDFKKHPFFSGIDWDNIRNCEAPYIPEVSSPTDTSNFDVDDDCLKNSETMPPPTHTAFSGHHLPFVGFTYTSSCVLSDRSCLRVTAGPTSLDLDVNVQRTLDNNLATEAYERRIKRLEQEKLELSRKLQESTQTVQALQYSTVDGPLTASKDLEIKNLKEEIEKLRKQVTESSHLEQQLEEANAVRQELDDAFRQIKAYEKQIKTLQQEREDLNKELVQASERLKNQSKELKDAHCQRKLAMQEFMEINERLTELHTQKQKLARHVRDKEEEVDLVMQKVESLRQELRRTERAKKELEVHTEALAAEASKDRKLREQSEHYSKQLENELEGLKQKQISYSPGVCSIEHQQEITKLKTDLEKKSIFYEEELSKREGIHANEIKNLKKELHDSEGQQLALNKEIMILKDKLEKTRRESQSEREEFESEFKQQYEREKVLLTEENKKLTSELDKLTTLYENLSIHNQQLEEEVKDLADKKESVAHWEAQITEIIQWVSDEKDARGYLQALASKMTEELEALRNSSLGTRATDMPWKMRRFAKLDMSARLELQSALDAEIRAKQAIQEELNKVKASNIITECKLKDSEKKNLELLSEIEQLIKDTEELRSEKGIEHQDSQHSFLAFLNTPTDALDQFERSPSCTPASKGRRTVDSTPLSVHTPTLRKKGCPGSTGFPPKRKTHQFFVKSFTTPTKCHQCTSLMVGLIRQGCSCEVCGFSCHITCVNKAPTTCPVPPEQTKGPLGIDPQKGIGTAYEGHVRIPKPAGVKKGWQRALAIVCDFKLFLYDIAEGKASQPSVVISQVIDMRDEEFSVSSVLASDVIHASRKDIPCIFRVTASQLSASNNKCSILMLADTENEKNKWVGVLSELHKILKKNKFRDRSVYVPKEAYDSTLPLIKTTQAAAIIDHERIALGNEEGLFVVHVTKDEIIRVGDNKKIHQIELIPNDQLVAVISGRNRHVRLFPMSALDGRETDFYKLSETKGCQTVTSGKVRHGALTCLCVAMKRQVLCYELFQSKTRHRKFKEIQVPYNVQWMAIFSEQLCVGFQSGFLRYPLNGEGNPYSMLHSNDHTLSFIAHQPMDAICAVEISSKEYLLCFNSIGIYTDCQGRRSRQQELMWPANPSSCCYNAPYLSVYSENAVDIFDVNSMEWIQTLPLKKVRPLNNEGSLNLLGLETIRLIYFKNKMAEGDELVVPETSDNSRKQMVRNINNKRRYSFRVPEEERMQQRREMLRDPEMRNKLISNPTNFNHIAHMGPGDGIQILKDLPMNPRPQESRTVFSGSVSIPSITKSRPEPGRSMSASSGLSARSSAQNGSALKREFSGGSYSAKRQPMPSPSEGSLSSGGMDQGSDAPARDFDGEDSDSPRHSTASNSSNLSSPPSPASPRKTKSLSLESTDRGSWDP

MARK4 = MARK4 (Homo sapiens, UniProt Q96L34); assay: biochemical; conditions: read-out: %Ctrl @ 2000nM
[2] = system: AKT (S129) in 786-O cells
FRK = FRK (Homo sapiens, UniProt P42685); assay: biochemical; conditions: read-out: %Ctrl @ 2000nM
CAMKK2 = CAMKK2 (Homo sapiens, UniProt Q96RR4); assay: biochemical; conditions: read-out: %Ctrl @ 2000nM
EPHA6 = EPHA6 (Homo sapiens, UniProt Q9UF33); assay: biochemical; conditions: read-out: %Ctrl @ 2000nM
CHEK2 = CHEK2 (Homo sapiens, UniProt O96017); assay: biochemical; conditions: read-out: %Ctrl @ 2000nM
CASK = CASK (Homo sapiens, UniProt O14936); assay: biochemical; conditions: read-out: %Ctrl @ 2000nM
PIK3CA(M1043I) = PIK3CA(M1043I) (Homo sapiens, UniProt P42336, M1043I); assay: biochemical; conditions: read-out: %Ctrl @ 2000nM
[3] = target: ABL1(F317L)-nonphosphorylated (Homo sapiens, UniProt P00519, F317L); assay: biochemical; conditions: read-out: %Ctrl @ 2000nM
CAMK1 = CAMK1 (Homo sapiens, UniProt Q14012); assay: biochemical; conditions: read-out: %Ctrl @ 2000nM
[4] = target: RPS6KA4(Kin.Dom.2-C-terminal) (Homo sapiens, UniProt O75676); assay: biochemical; conditions: read-out: %Ctrl @ 2000nM
CSNK2A2 (CK2α′) = CSNK2A2 (CK2α′) (Homo sapiens, UniProt P19784); assay: biochemical
Sequence of CSNK2A2 (CK2α′) (P19784 whole entry): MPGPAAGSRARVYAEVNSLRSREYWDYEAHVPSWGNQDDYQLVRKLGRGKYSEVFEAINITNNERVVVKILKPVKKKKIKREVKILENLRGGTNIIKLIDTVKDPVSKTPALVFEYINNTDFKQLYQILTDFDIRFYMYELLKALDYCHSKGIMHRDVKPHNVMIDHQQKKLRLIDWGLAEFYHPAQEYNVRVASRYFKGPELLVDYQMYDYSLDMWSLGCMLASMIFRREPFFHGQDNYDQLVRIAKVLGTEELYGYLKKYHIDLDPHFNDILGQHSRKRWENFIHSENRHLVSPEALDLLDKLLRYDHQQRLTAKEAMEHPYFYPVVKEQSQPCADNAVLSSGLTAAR

PHKG1 = PHKG1 (Homo sapiens, UniProt Q16816); assay: biochemical; conditions: read-out: %Ctrl @ 2000nM
STK36 = STK36 (Homo sapiens, UniProt Q9NRP7); assay: biochemical; conditions: read-out: %Ctrl @ 2000nM
Sequence of STK36 (Q9NRP7 whole entry): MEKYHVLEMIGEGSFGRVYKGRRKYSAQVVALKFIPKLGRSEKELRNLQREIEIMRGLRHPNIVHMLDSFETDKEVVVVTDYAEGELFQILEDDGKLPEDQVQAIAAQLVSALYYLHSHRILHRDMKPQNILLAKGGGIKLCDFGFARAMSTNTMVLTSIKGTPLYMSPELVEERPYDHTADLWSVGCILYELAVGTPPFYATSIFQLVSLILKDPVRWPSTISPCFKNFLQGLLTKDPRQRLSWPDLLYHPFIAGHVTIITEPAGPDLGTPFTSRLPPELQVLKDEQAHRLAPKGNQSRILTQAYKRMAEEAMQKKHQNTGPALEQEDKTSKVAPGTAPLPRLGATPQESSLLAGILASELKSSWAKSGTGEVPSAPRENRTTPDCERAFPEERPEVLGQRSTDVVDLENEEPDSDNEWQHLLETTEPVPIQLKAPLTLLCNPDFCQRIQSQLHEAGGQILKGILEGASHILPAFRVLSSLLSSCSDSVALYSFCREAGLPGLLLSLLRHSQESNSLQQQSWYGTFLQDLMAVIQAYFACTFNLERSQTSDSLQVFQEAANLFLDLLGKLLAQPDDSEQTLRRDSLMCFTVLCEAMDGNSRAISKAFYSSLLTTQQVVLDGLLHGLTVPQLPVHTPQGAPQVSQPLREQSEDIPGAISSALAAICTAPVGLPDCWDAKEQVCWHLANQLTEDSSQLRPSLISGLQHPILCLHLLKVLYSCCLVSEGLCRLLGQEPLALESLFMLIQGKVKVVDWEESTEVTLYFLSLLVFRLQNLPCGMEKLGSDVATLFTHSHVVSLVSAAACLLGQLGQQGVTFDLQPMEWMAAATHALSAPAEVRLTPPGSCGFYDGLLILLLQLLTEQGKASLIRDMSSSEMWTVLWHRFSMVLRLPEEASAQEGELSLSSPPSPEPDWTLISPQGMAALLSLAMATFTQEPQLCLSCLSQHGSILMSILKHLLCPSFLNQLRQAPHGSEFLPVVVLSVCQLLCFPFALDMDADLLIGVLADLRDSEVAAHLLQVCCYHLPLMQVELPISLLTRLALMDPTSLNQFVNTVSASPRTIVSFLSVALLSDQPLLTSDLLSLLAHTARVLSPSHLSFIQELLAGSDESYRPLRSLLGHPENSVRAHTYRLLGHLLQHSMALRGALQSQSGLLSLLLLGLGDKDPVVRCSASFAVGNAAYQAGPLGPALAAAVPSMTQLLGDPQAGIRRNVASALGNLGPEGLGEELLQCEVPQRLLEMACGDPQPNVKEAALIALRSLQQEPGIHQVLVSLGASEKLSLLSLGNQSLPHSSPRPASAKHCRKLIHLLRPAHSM

[5] = target: RPS6KA5(Kin.Dom.2-C-terminal) (Homo sapiens, UniProt O75582); assay: biochemical
Sequence of RPS6KA5(Kin.Dom.2-C-terminal) (O75582 388-802 limits assumed): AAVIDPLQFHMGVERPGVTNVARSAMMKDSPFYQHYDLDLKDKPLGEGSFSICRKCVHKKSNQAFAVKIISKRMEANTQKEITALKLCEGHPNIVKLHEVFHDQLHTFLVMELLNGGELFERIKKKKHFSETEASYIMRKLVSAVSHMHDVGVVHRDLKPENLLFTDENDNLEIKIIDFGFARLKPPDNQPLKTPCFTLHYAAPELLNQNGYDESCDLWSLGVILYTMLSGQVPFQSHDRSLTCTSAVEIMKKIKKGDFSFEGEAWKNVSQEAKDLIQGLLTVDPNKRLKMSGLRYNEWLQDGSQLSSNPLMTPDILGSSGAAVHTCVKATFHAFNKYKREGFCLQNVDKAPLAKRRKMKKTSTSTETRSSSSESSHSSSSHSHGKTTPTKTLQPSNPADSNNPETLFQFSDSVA

MKNK2 = MKNK2 (Homo sapiens, UniProt Q9HBH9); assay: biochemical; conditions: read-out: %Ctrl @ 2000nM
NEK6 = NEK6 (Homo sapiens, UniProt Q9HC98); assay: biochemical; conditions: read-out: %Ctrl @ 2000nM
OSR1 = OSR1 (Homo sapiens, UniProt O95747); assay: biochemical; conditions: read-out: %Ctrl @ 2000nM
MARK2 = MARK2 (Homo sapiens, UniProt Q7KZI7); assay: biochemical; conditions: read-out: %Ctrl @ 2000nM
MET(Y1235D) = MET(Y1235D) (Homo sapiens, UniProt P08581, Y1235D); assay: biochemical; conditions: read-out: %Ctrl @ 2000nM
RIPK5 = RIPK5 (Homo sapiens, UniProt Q6XUX3); assay: biochemical; conditions: read-out: %Ctrl @ 2000nM
EPHB4 = EPHB4 (Homo sapiens, UniProt P54760); assay: biochemical; conditions: read-out: %Ctrl @ 2000nM
FGFR4 = FGFR4 (Homo sapiens, UniProt P22455); assay: biochemical; conditions: read-out: %Ctrl @ 2000nM
Sequence of FGFR4 (P22455 22-802): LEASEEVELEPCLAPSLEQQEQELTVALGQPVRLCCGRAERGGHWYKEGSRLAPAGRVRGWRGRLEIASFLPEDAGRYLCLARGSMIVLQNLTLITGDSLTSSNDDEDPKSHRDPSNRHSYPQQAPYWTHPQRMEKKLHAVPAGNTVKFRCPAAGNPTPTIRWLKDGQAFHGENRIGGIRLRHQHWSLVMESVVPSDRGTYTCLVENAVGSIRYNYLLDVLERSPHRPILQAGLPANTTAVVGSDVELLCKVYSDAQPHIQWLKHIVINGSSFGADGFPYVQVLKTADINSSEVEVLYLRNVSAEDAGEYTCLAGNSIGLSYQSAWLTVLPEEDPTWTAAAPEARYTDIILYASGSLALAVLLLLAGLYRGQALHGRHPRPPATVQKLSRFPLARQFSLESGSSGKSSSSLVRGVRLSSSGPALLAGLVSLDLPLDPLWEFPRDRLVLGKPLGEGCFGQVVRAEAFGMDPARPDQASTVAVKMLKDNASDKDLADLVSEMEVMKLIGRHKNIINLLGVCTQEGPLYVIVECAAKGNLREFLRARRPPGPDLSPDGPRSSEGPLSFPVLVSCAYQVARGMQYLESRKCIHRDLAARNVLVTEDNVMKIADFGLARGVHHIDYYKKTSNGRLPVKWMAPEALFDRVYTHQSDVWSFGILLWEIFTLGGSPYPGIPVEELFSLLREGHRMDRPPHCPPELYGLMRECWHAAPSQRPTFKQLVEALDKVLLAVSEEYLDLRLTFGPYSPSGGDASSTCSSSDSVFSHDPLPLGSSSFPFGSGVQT

[6] = target: RSK4(Kin.Dom.1-N-terminal) (Homo sapiens, UniProt Q9UK32); assay: biochemical; conditions: read-out: %Ctrl @ 2000nM
MAPKAPK2 = MAPKAPK2 (Homo sapiens, UniProt P49137); assay: biochemical; conditions: read-out: %Ctrl @ 2000nM
Sequence of MAPKAPK2 (P49137 whole entry): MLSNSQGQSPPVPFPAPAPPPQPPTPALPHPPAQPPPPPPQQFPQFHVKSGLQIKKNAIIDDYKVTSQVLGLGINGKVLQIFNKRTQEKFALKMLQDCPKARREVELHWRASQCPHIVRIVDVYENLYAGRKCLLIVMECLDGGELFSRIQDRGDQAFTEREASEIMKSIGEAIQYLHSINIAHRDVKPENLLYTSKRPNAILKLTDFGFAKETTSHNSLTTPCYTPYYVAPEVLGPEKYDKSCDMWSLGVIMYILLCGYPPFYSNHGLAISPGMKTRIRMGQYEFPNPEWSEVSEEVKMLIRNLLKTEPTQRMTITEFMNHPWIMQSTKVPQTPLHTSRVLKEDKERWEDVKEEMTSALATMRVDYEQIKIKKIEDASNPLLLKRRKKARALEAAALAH

CSNK1G2 = CSNK1G2 (Homo sapiens, UniProt P78368); assay: biochemical; conditions: read-out: %Ctrl @ 2000nM
TSSK1B = TSSK1B (Homo sapiens, UniProt Q9BXA7); assay: biochemical; conditions: read-out: %Ctrl @ 2000nM
MAST1 = MAST1 (Homo sapiens, UniProt Q9Y2H9); assay: biochemical; conditions: read-out: %Ctrl @ 2000nM
HIPK2 = HIPK2 (Homo sapiens, UniProt Q9H2X6); assay: biochemical; conditions: read-out: %Ctrl @ 2000nM
HUNK = HUNK (Homo sapiens, UniProt P57058); assay: biochemical; conditions: read-out: %Ctrl @ 2000nM
JNK3 = JNK3 (Homo sapiens, UniProt P53779); assay: biochemical; conditions: read-out: %Ctrl @ 2000nM
WNK4 = WNK4 (Homo sapiens, UniProt Q96J92); assay: biochemical; conditions: read-out: %Ctrl @ 2000nM
LIMK2 = LIMK2 (Homo sapiens, UniProt P53671); assay: biochemical; conditions: read-out: %Ctrl @ 2000nM
AMPK-alpha2 = AMPK-alpha2 (Homo sapiens, UniProt P54646); assay: biochemical; conditions: read-out: %Ctrl @ 2000nM

**Q.** For `CC(C)COC(=O)c1[nH]c2ccc(F)cc2c1-c1cn(CC2CCN(CCNS(=O)(=O)c3ccc(CC(C)C)cc3)CC2)nn1` [AB668, isobutyl 5-fluoro-3-(1-((1-(2-((4-isobutylphenyl)sulfonamido)ethyl)piperidin-4-yl)methyl)-1H-1,2,3-triazol-4-yl)-1H-indole-2-carboxylate], which remaining activity at 2 µM (PKN2) is on record?
**A.** 85%

**Q.** What about the remaining activity at 2 µM (CAMK2B) of the same compound?
**A.** 96%

**Q.** And the remaining activity at 2 µM (PAK6)?
**A.** 90%

**Q.** What about the remaining activity at 2 µM (BIKE) of the same compound?
**A.** 99%

**Q.** And the remaining activity at 2 µM [1]?
**A.** 100%

**Q.** And the remaining activity at 2 µM (PIK3CA(H1047Y))?
**A.** 100%

**Q.** What about the remaining activity at 2 µM (HCK) of the same compound?
**A.** 96%

**Q.** And the remaining activity at 2 µM (MRCKA)?
**A.** 84%

**Q.** What about the remaining activity at 2 µM (MARK4) of the same compound?
**A.** 87%

**Q.** What about the “pAKTS129 / AKT band quantification” value [2] of the same compound?
**A.** 0.8 and 0.5

**Q.** And the remaining activity at 2 µM (FRK)?
**A.** 70%

**Q.** What about the remaining activity at 2 µM (CAMKK2) of the same compound?
**A.** 81%

**Q.** And the remaining activity at 2 µM (EPHA6)?
**A.** 83%

**Q.** What about the remaining activity at 2 µM (CHEK2) of the same compound?
**A.** 100%

**Q.** And the remaining activity at 2 µM (CASK)?
**A.** 97%

**Q.** And the remaining activity at 2 µM (PIK3CA(M1043I))?
**A.** 100%

**Q.** What about the remaining activity at 2 µM [3] of the same compound?
**A.** 88%

**Q.** And the remaining activity at 2 µM (CAMK1)?
**A.** 77%

**Q.** What about the remaining activity at 2 µM [4] of the same compound?
**A.** 97%

**Q.** And the remaining activity at 2 µM (CSNK2A2 (CK2α′); read-out: %Ctrl @ 2000nM)?
**A.** 19%

**Q.** What about the inhibition at 2 µM (CSNK2A2 (CK2α′); read-out: inhibition (KINOMEscan profiling)) of the same compound?
**A.** 81%

**Q.** And the remaining activity at 2 µM (PHKG1)?
**A.** 76%

**Q.** What about the remaining activity at 2 µM (STK36) of the same compound?
**A.** 100%

**Q.** And the remaining activity at 2 µM ([5]; read-out: %Ctrl @ 2000nM)?
**A.** 43%

**Q.** What about the inhibition at 2 µM ([5]; read-out: percentage inhibition) of the same compound?
**A.** > 50%

**Q.** And the remaining activity at 2 µM (MKNK2)?
**A.** 100%

**Q.** And the remaining activity at 2 µM (NEK6)?
**A.** 87%

**Q.** And the remaining activity at 2 µM (OSR1)?
**A.** 81%

**Q.** What about the remaining activity at 2 µM (MARK2) of the same compound?
**A.** 81%

**Q.** What about the remaining activity at 2 µM (MET(Y1235D)) of the same compound?
**A.** 74%

**Q.** And the remaining activity at 2 µM (RIPK5)?
**A.** 95%

**Q.** What about the remaining activity at 2 µM (EPHB4) of the same compound?
**A.** 79%

**Q.** And the remaining activity at 2 µM (FGFR4)?
**A.** 82%

**Q.** And the remaining activity at 2 µM [6]?
**A.** 88%

**Q.** What about the remaining activity at 2 µM (MAPKAPK2) of the same compound?
**A.** 92%

**Q.** And the remaining activity at 2 µM (CSNK1G2)?
**A.** 75%

**Q.** And the remaining activity at 2 µM (TSSK1B)?
**A.** 91%

**Q.** What about the remaining activity at 2 µM (MAST1) of the same compound?
**A.** 100%

**Q.** And the remaining activity at 2 µM (HIPK2)?
**A.** 100%

**Q.** And the remaining activity at 2 µM (HUNK)?
**A.** 88%

**Q.** What about the remaining activity at 2 µM (JNK3) of the same compound?
**A.** 92%

**Q.** What about the remaining activity at 2 µM (WNK4) of the same compound?
**A.** 96%

**Q.** And the remaining activity at 2 µM (LIMK2)?
**A.** 84%

**Q.** And the remaining activity at 2 µM (AMPK-alpha2)?
**A.** 100%
